Test results taken from patent US20130183696A1, “METHODS OF USE AND KIT FOR MEASUREMENT OF LIPOPOLYSACCHARIDE WITH A TIME RESOLVED FLUORESCENCE BASED ASSAY” (priority 2010, published 2013).

Columns and labels:
[1] = cited from earlier work
[2] = target: T1, recombinant rat A1 adenosine receptor (Rattus norvegicus, UniProt P25099); experiment: A1 adenosine receptor TRF Eu-GTP binding assay, standard curve for LPS; type: biochemical; details: CHO cell membranes, Eu-GTP 10 nM, % basal activity; mean of 8-10 independent assays, LPS 10 pg/mL-100 ng/mL
T1 construct: purchased PerkinElmer, Waltham, Mass; host or cells: CHO cells (membranes)
T1 sequence (P25099 1-326): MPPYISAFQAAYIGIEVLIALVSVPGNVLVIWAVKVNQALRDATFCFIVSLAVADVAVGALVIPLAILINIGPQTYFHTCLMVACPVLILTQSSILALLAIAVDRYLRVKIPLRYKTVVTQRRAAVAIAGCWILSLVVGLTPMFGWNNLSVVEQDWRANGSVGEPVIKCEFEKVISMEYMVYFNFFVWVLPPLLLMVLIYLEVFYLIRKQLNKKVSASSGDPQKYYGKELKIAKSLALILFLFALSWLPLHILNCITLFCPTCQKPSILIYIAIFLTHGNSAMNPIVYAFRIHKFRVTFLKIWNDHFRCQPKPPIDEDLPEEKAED
Experimental: To generate a standard LPS/endotoxin standard curve membranes prepared from CHO cells (1 unit/well corresponding to approximately 20 μg of protein per well; PerkinElmer, Waltham, Mass.) expressing the recombinant rat A1 adenosine receptor are preincubated in an Acrowell filter plate (Pall Life Sciences, Ann Arbor, Mich.) in the presence of LPS/endotoxin (USP, Rockville, Md.) (0.01-750 ng/mL). The endotoxin stock solution is prepared by dissolving 10,000 endotoxin units (corresponding to 1000 ng) in 333 μL of endotoxin free water. […] Each assay point is evaluated in triplicate. […] Fluorescence in each well is determined with an Infinite F-200 PRO (Tecan, Grodig, Austria) using fluorescent top read with an excitation wavelength of 320 nm, emission wavelength of 620 nm, and gain setting of 109. Eu-GTP basal activity is calculated as the difference between total Eu-GTP bound and nonspecific Eu-GTP bound. Percent (%) basal is calculated as follows: [(test condition−nonspecific)/(basal activity)]*100. […] The standard curve is analyzed by nonlinear regression (GraphPad Prism, version 5, GraphPad Software, La Jolla, Calif.) using a sigmoidal dose-response curve with variable slope to determine EC50. Each standard curve represents a minimum of three independent experiments and final data are expressed as the mean±SEM. […]

Substance: drotrecogin alfa [Xigris, drotrecogin alfa [activated]]
- adverse side effect ([1]; in vivo): serious adverse side effect of bleeding
- reduction of absolute mortality compared to placebo ([1]; sepsis patients, definitive large clinical trials (Bernard et al., 2001)): 6%

Substance: lipopolysaccharide [LPS]
- sensitivity of the assay for LPS [2]: 10 pg/mL
